From patent US20160038474A1, “COMPOSITIONS AND METHODS FOR THE MODULATION OF HEMOGLOBIN (S)” (GLOBAL BLOOD THERAPEUTICS, INC., priority 2013, published 2016)
Where two headings read alike, the source gives them in different places.

How the values were obtained:
[1] = Mouse intravenous pharmacokinetics and blood/plasma partitioning; type: in vivo; details: mice; for blood plasma ratio: whole blood and plasma, iv
Source text: The ability of compound 12 to partition preferentially in red blood cells has also been confirmed in mice treated intravenously. […] Analogous to the measurements in rats, the volume of distribution (Vss) was low in mice (0.10). Thus, compound 12 is not expected to broadly distribute into extravascular space in mice.

[2] = system: hemoglobin and human serum albumin; assay: In vitro binding to hemoglobin and human serum albumin at physiologic ratio; details: both proteins present in their respective physiologic ratio
Experimental: However, when the red blood cell compartment is considered, compound 12 unexpectedly partitions into blood to a far greater extent than compound 22 or compound 23. […] When the red blood cell/plasma ratio was measured at the peak concentration, compound 12 partitioned at a ratio of 70 to 1 into the erythrocytes attesting to its preferential partition into the compartment which contains the drug target hemoglobin. Supportive data was reported in an in vitro system measuring binding of compound 12 to hemoglobin and human serum albumin.

[3] = target: T1, whole blood from homozygous sickle cell patients, Hb(S) (Homo sapiens, UniProt P68871+P69905, E7V); assay: Reverse Hemox assay (oxygen equilibrium curves), whole blood; type: cell-based; details: for Whole Blood OEC (delta p50%): [Hb] 1 mM
T1 construct: Oxygen Equilibrium Curves (OEC) of whole blood before and after treatment; from tissue; host or cells: whole blood (or washed red blood cells) of homozygous sickle cell patients
Experimental: Oxygen Equilibrium Curves (OEC) of whole blood before and after treatment with different concentrations of compounds 12, 22 and 23 were performed as follows using a HEMOX analyzer (TCS Scientific, New Hope, Pa.). Blood samples from homozygous sickle cell patients were obtained though the Hemoglobinopathy Center at Children's Hospital Oakland Research Institute (CHORI) with Institutional Review Board approval. The hematocrit was adjusted to 20% using autologous plasma and the blood samples were incubated for 1 hour at 37° C. in absence or presence of compounds. 100 μl of these samples were added to 5 mL of Hemox butter (30 mM TES, 130 mM NaCl, 5 mM KCl, pH=7.4) at 37° C. and then transferred to the Hemox sample chamber. The samples were saturated with oxygen by flushing with compressed air for 10 minutes. The samples were then flushed with pure nitrogen and the respective absorbances of oxy- and deoxy-Hb are recorded as a function of the solution pO2. The oxygen equilibrium data were then fitted to the Hill Model to obtain values for p50. The deoxygenation curves for both whole blood alone (control) and whole blood in the presence of the compound were collected with the TCS software.
Results: Table 3 below lists the delta p50% values where “+” indicates a delta p50% of between 0 and 29, “++” indicates a delta p50% of between 30 and 50, and “+++” indicates a delta p50% of 50 or greater.
Reverse hemox assay was performed essentially as described in Example 2, above, using either washed red blood cells or whole blood.

[4] = target: T2, HbS/A (Homo sapiens, UniProt P68871+P69905, E7V); assay: R/T assay (relaxed-to-tense transition); type: biochemical; details: HbS/A 3 μM
T2 construct: A mixture of HbS/A was purified from blood obtained from homozygous sickle cell patients; from tissue; host or cells: blood of homozygous sickle cell patients
Experimental: This ability can be expressed as a “delta R” value (i.e., the change in the time-period of the R state after hemoglobin is treated with a compound, as compared to the period without treatment with the compound). Delta R is the % R to remaining after the compounds treatment compared with no treatment (e.g., if R % without treatment is 8% while with treatment with a target compound is 48% R at 30 μM, then % R is 40% for that compound.
A mixture of HbS/A was purified from blood obtained from homozygous sickle cell patients though the Hemoglobinopathy Center at Children's Hospital Oakland Research Institute (CHORI) with Institutional Review Board approval. HbS/A (at a final concentration of 3 μM) was incubated for 1 hr at 37° C. in presence or absence of compounds in […] potassium phosphate buffer, pH=7.4 and 30 μM 2,3 diphosphoglycerate (DPG) in 96 well plates in a final volume of 160 μl. Compounds were added at different concentrations (3 μM to 100 μM final concentrations). Plates were covered with a Mylar film. After incubation was completed the Mylar cover was removed and the plates were placed in a Spectrostar Nano plate reader previously heated at 37° C. Five minutes later, N2 (flow rate=20 L/min) was flowed through the spectrophotometer. Spectroscopic measurements (300 nm to 700 nm) were taken every 5 min for 2 hours. Data analysis was performed by using linear regression from the data retrieved for all wavelengths.

[5] = target: T3, HbS (Homo sapiens, UniProt P68871+P69905, E7V); assay: 96-well oxygen dissociation assay (ODA); type: biochemical
Source text: Results: Table 4 below lists the change in oxygen affinity (Δoxy state). After two hours of passive deoxygenation, compound 12, at an equimolar concentration to Hb, increased the Hb oxygen affinity by 6-fold.

[6] = target: purified Hb (Homo sapiens, UniProt P68871+P69905); assay: TCS Hemox analyzer with purified Hb; type: biochemical; details: purified Hb 25 μM
Experimental: The agents were then assayed in a TCS Hemox analyzer using purified Hb at 25 μM.

[7] = system: red blood cells; assay: Sickling assay under hypoxia; type: cell-based; details: for Sickling (% sickled): [HbS] ~1 mM (20% HCT), No Cmpd 85
Experimental: For sickling experiments, red blood cells were pre-incubated with compound 12 or 5-HMF, then subjected to hypoxia (pO2 of ˜3 mmHg) in a 37° C. humidified chamber for 0.5 hr and subsequently imaged using a light microscope. The percentage of sickled cells in each image was calculated using CellVigene software.

[8] = target: T3, HbS; assay: 96-well oxygen dissociation assay (ODA); type: biochemical; remark: listed apart in the source
[9] = ratio of compound 12 to Hb of 1:3

## CC(C)n1nccc1-c1ncccc1COc1cccc(O)c1C=O [Compound 12, 2-hydroxy-6-[[2-(2-propan-2-ylpyrazol-3-yl)pyridin-3-yl]methoxy] benzaldehyde]
[1]; in vivo, read-out: volume of distribution (Vss)
  Vd: 0.1 L/kg
[1]; read-out: ratio of blood/plasma at overall exposure
  blood plasma ratio: 30
[1]; read-out: ratio of blood/plasma at peak in vivo concentration
  blood plasma ratio: 15.4
[2]
  binding preference, hemoglobin versus human serum albumin: preferentially binding to hemoglobin
[3]; 1 mM compound, whole blood, hematocrit 20%
  Reverse Hemox delta p50% (class): +++ (a delta p50% of 50 or greater)
[3]; 1 mM compound, whole blood, hematocrit 20%, 1 hour 37° C.
  Reverse Hemox delta p50%: 79.83%
[3]; [cmp] 1 mM
  Whole Blood OEC (delta p50%): 80%
[3]; [cmp] 3 mM
  Whole Blood OEC (delta p50%): >80%
[3]; whole blood from sickle cell disease patients, control blood p50 30 mm Hg
  p50: 6 mm Hg
[4]; 9 μM compound
  R-T delta R: 65.45
  R-T delta R (class): +++ (a delta R of 50 or greater)
[4]; 10 μM compound
  R-T delta R: 62.75
  R-T delta R (class): +++ (a delta R of 50 or greater)
[5]; 96-well ODA
  potency at increasing the oxygen affinity of HbS compared with 5-HMF: more potent at increasing the oxygen affinity of HbS than 5-hydroxy furfural
[5]; [Hb] 3 μM, [cmp] 3 μM
  Hb in ODA (Δoxy state): 56
[5]; equimolar concentration to Hb, after two hours of passive deoxygenation
  increase of Hb oxygen affinity: 6 fold
[6]; compound:Hb ratio of 1:3
  improvement of oxygen affinity versus Hb control: 15%
[6]; stoichiometric concentrations
  improvement of oxygen affinity versus Hb control: greater than 70%
[7]; [Cmpd] 1 mM
  Sickling (% sickled): 41%
[7]; [Cmpd] 2 mM
  Sickling (% sickled): 33%
[7]; [Cmpd] 5 mM
  Sickling (% sickled): 28%
[7]; hypoxia 0.5 hr, 37° C.
  sickling of RBCs (in words): prevented sickling of RBCs under hypoxia
[8]; [Hb] 3 μM, [cmp] 1 μM
  Hb in ODA (Δoxy state): 16
[8]; [9]
  improvement in oxygen affinity for Hb: two-fold
  more oxygenated Hb present: 16%
